Measurements published in US20200289473A1, “METHODS OF TREATING NEURODEGENERATION” (The J David Gladstone Institutes a testamentary trust …, priority 2017, published 2020).
Entries after “also recorded” stand apart in the source; their conditions may differ.

Legend:
[1] = system: pro-inflammatory gene expression; assay: real-time PCR of pro-inflammatory genes in spinal cords at the peak of EAE; format: in vivo, mice; conditions: spinal cord, peak of MOG35-55 EAE; vs saline
Experimental: To gain insight into the anti-inflammatory mechanism by which acivicin regulates the progression of inflammation after EAE, real-time PCR analysis was used. Real-time PCR analysis of expression of pro-inflammatory genes in the spinal cords of MOG35-55 treated mice was performed at the peak of EAE in the saline-treated and acivicin-treated mice (n=7 saline and n=7 acivicin).

[2] = system: MOG35-55 induced EAE; assay: chronic EAE model (MOG35-55), prophylactic treatment, clinical score; format: in vivo; conditions: MOG35-55 mice; daily i.p. starting 0 day after immunization; vs saline
Description: (§1) To further study the ability of acivicin to inhibit microglial activation, acivicin was next studies for its ability to suppress disease progression and ameliorate the disease symptoms in the EAE animal models of multiple sclerosis. Two models of EAE were used: (1) mice immunized with MOG35-55 to induce chronic disease and (2) mice immunized with PLP139-151 to induce relapsing-remitting EAE.
First, to examine the ability of acivicin to prevent disease symptoms and/or progression to multiple sclerosis in a chronic EAE model, acivicin or saline were administered prophylactically to mice immunized with MOG35-55 to induce chronic disease. The mice were immunized with MOG35-55 to induce chronic disease. Acivicin or saline was administered daily by intraperitoneal (i.p.) injection, starting 0 day after immunization (n=15 saline, n=14 acivicin).

[3] = system: Cx3cr1+ microglia and Ccr2+ monocytes; assay: microglial accumulation and monocyte infiltration in Ccr2RFP/+Cx3cr1GFP/+ mice with MOG35-55 EAE; format: in vivo; conditions: prophylactic injection
Description: CNS-resident innate immune cell microglia and CNS-infiltrating inflammatory monocytes are essential for the inflammatory progression of EAE. Yamasaki, R. et al. J Exp Med 211, 1533-1549 (2014); Ajami, B. et al, Nature neuroscience 14, 1142-1149 (2011). To determine whether blocking the γ-glutamyl transpeptidase activity with acivicin inhibits microglial activation and infiltration of monocytes/macrophages in vivo in the EAE models, Ccr2^RFP/+Cx3cr1^GFP/+ mice in which resident microglia are GFP-positive and inflammatory monocytes are RFP-positive were used. Ryu, J. K. et al. Nat Commun 6, 8164 (2015). EAE was induced with MOG35-55, and mice were prophylactically injected with acivicin.

[4] = system: fibrin-activated microglia cells; assay: proliferation of fibrin-activated microglia cells; format: cell-based; conditions: increase in cell count upon activation; dose-dependent (FIG. 3)
Description: (§2) Throughout assay development, we consistently observed multiple-fold proliferation (increase in cell count) of microglia upon activation. Proliferation of fibrin-activated microglia cells was inhibited by treatment with acivicin. […] We also examined the effect of acivicin on microglia activation by other immunostimulatory agents.

[5] = system: microglia; assay: cell toxicity in the microglia activation assay; format: cell-based; conditions: up to highest assay concentration of 20 μM
Description: (§3) To identify inhibitors of microglia activation, an assay as described in U.S. Ser. No. 15/109,163, was used to screen a library of 1907 clinical drugs and bioactive compounds. The criteria for hits were ≥50% inhibition of activation and ≤3% cell death to exclude toxic compounds. This represents a three standard deviation difference from the mean value of negative control activated cells. 128 compounds were selected from the screen that satisfied these criteria for dose response curves. Acivicin, a γ-glutamyl transpeptidase inhibitor, was identified among the compounds and was selected for additional characterization as it was an unexpected target for microglial activation and had not been previously linked with neurological diseases.
as §2

[6] = system: myelin damage and neuronal injury in EAE; assay: MBP and SMI-32 immunohistochemistry in EAE; format: in vivo; conditions: after EAE induction; vs saline-treated mice
Description: To investigate whether acivicin can protect from myelin damage and neurodegeneration in EAE, MBP and SMI-32 immunohistochemistry was used to assess myelin damage and neuronal injury.

[7] = system: LPS-induced microglia activation; assay: LPS-induced microglia activation assay; format: cell-based; conditions: LPS stimulus; comparable to fibrin (FIG. 4)
Description: as §3, §2

[8] = system: PLP139-151 induced EAE; assay: relapsing-remitting EAE model (PLP139-151), therapeutic treatment, clinical score; format: in vivo; conditions: PLP139-151 mice; daily i.p. starting at peak EAE; vs saline
Description: as §1
Next, to assess the ability to therapeutic efficacy of acivicin to treat disease symptoms and/or progression in relapsing-remitting (PLP139-151) EAE model, mice were administered either acivicin or saline injections daily by intraperitoneal (i.p.) injection starting at the peak EAE phase of the EAE PLP139-151. (n=6 saline, and n=7 acivicin). Acivicin decreased the clinical severity of EAE during remission phases (FIG. 7).

[9] = system: fibrin-induced microglia activation; assay: fibrin-induced microglia activation assay; format: cell-based; conditions: dose-dependent, fibrin stimulus, read-out: IC50, inhibition of fibrin-induced microglia activation
Description: as §3, §2

For `N[C@H](C(=O)O)[C@@H]1CC(Cl)=NO1` [acivicin], which “EAE-induced transcription of Ccl5” value [1] is on record?
The value was “inhibits”.

And the “EAE-induced transcription of Cxcl10” value [1]?
Its value is “inhibits”.

What about the “EAE-induced transcription of IL-1b” value [1] of the same compound?
Its value is “inhibits”.

And the “EAE-induced transcription of IL-12p40” value [1]?
The value was “inhibits”.

What about the “EAE-induced transcription of iNOS” value [1] of the same compound?
The value was “inhibits”.

What about the “acute phase of EAE (clinical score)” value [2] of the same compound?
The value was “completely inhibited”.

And the “accumulation of Cx3cr1+ microglia (% area GFP in spinal cord)” value [3]?
Its value is “significantly decreased”.

What about the “infiltration of Ccr2+ monocytes (% area RFP)” value [3] of the same compound?
The value was “significantly decreased”.

And the “proliferation of fibrin-activated microglia cells” value [4]?
Its value is “inhibited”.

And the “toxic cell death / cell toxicity” value [5]?
Its value is “no apparent cell toxicity; also recorded: not evident”.

What about the “axonal injury (SMI-32 immunohistochemistry)” value [6] of the same compound?
The value was “dramatic reduction”.

What about the “myelin damage (MBP immunohistochemistry)” value [6] of the same compound?
Its value is “dramatic reduction”.

What about the “inhibition of microglia activation by LPS (potency)” value [7] of the same compound?
Its value is “comparable low μM potency”.

And the “clinical severity of EAE during remission phases” value [8]?
Its value is “decreased”.

And the IC50 [9]?
The IC50 was 2000 nM.
